# In patent US20200164060A1, “HERPES SIMPLEX VIRUS VACCINE EPITOPES SP[…] TISSUE RESIDENT MEMORY T CELLS” (priority 2017, published 2020):
# Test system: biopsy-derived HSV-2-specific CD4 TRM
# Assay: single peptide test with biopsy-derived HSV-2-specific CD4 TRM, IFN-γ secretion
# Format: cell-based, human
# Settings: peptide at 1 μg/ml; HLA-expressing cells as antigen presenting cells; media control gave no response
# Description: FIG. 14. CD4 epitopes: peptide pools→singles. For this example, biopsy-derived cells recognize Cos7 co-transfected with the combination of a subject HLA molecule and HSV-2 UL19 gene. A rectangular matrix of peptides covering UL19 was created and row and column pools were made as indicated on the X axis of the top graph. Only one row pool and one column pool gave a positive proliferative response using the assay described in FIG. 13. The peptide at the intersection of the positive row and column pools, UL19 305-319 (SEQ ID NO: 14), was tested at 1 μg/ml using HLA-expressing cells as antigen presenting cells and biopsy-derived HSV-2-specific CD4 TRM as responder cells. The readout was IFN-γ secretion, as shown in the bottom graphs.
# The technology used to determine the fine peptide specificity of biopsy-derived CD4 T cells that recognize HSV-2 has been described in Johnston, et al., Journal of Virology 88, 4921-4931 (2014). In brief, every HSV-2 was expressed. […] T cell activation was detected by proliferation or IFN-γ secretion assays. Once the identity of reactive HSV-2 proteins were determined, peptides from within that protein were tested in repeat assays as described in Johnston, et al., Journal of Virology 88, 4921-4931, (2014). In some cases, dose-response assays were conducted as described in Jing, et al., Journal of Immunology 196, 2205-2218, (2016). […]
sequence,measurement,value
TYGEMVLNGANLVTA [SEQ ID NO: 14],IFN-γ response from the biopsy cells,elicited an IFN-γ response
